# ChEMBL document CHEMBL5528010, “The discovery of aryl-2-nitroethyl triamino pyrimidines as anti-Trypanosoma brucei agents” (Eur J Med Chem, 2024)
# Test system: CYP2D6
# Test: Selectivity index, ratio of IC50 for CYP2D6 (unknown origin) to EC50 for blood stream form Trypanosoma brucei
# Format: toxicity
# Conditions: read-out: Ratio IC50/EC50
row,Structure (SMILES),selectivity ratio
1,Nc1nc(N)c(C(C[N+](=O)[O-])c2ccccc2OCc2ccc(Cl)c(Cl)c2)c(N)n1 (stereo unspecified),20

# Test system: not listed separately
# Test: Growth inhibition of human A549 cells measured after 48 hrs by celltiter-glo assay
# Format: toxicity, cell-based
# Conditions: not given
row,Structure (SMILES),GI50 at 48 h [µM]
1,Nc1nc(N)c(C(C[N+](=O)[O-])c2ccccc2OCc2ccc(Cl)c(Cl)c2)c(N)n1 (stereo unspecified),10

# Test system: not listed separately
# Test: Half life in BALB/c mouse at 20 mg/kg, po measured upto 24 hrs by LC-MS/MS analysis
# Format: ADME, organism-based
# Conditions: in vivo
row,half-life [h],Structure (SMILES)
1,3,Nc1nc(N)c(C(C[N+](=O)[O-])c2ccccc2OCc2ccc(Cl)c(Cl)c2)c(N)n1 (stereo unspecified)

# Target: Cytochrome P450 3A4 (Homo sapiens, UniProt P08684)
# Sequence (P08684 whole entry): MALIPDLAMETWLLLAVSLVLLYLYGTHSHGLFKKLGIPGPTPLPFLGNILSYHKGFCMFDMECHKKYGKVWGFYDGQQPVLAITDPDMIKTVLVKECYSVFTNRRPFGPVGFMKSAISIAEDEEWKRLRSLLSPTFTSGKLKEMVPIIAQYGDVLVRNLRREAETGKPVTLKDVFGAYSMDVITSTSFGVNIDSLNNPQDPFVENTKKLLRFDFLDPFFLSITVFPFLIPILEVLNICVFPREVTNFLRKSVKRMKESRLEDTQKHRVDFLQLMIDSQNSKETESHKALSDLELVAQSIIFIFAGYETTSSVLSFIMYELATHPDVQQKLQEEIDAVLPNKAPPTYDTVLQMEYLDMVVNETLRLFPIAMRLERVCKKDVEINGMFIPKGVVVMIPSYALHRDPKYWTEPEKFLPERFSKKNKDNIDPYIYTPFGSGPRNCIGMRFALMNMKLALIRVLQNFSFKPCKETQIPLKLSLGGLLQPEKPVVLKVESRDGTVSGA
# Test: Inhibition of CYP3A4 (unknown origin) expressed in baculovirus infected insect cells using luciferin as substrate preincubated for 30 mins followed by NADPH addition and measured after 30 mins by luminescence based analysis
# Format: ADME, Insect cell
# Conditions: not given
row,IC50 [µM],Structure (SMILES)
1,5.9,Nc1nc(N)c(C(C[N+](=O)[O-])c2ccccc2OCc2ccc(Cl)c(Cl)c2)c(N)n1 (stereo unspecified)

# Test system: not listed separately
# Test: Mitochondrial toxicity in human A549 cells
# Format: cell-based
# Conditions: not given
row,Structure (SMILES),IC50 [µM]
1,Nc1nc(N)c(C(C[N+](=O)[O-])c2ccccc2OCc2ccc(Cl)c(Cl)c2)c(N)n1 (stereo unspecified),3.9

# Target: Voltage-gated inwardly rectifying potassium channel KCNH2 (Homo sapiens, UniProt Q12809)
# Sequence (Q12809 whole entry): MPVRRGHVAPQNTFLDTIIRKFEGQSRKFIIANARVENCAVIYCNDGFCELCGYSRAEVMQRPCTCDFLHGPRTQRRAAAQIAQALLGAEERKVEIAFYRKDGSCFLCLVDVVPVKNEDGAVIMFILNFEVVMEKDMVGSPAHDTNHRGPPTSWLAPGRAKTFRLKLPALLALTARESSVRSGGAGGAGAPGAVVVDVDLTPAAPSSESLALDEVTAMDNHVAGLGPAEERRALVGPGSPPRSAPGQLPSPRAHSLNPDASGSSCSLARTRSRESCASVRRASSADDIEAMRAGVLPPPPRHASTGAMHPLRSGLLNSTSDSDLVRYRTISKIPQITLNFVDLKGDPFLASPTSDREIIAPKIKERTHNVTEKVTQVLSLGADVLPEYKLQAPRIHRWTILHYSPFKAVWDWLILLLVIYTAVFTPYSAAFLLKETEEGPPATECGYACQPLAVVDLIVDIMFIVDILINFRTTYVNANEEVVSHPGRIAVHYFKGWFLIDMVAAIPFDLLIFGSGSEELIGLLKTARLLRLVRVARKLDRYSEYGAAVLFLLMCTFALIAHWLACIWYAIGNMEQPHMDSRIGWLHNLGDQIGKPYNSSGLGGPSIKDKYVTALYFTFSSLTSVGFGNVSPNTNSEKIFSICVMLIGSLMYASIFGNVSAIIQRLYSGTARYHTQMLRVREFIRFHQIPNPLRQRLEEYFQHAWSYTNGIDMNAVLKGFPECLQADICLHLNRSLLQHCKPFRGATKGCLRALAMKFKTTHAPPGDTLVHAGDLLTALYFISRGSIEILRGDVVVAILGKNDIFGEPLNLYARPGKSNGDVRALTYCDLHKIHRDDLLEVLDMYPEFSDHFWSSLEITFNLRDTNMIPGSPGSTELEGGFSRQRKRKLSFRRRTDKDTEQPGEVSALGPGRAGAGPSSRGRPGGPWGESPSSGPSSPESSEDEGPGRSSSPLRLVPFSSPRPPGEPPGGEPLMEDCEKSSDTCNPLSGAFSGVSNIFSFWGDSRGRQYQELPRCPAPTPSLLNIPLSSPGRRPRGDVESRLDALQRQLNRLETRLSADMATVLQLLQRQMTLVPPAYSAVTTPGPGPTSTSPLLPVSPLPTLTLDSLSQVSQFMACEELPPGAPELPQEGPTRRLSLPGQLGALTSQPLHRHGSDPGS
# Test: Inhibition of human ERG incubated for 2 hrs by fluorescence polarization assay
# Format: toxicity
# Conditions: not given
row,Structure (SMILES),IC50 [µM]
1,Nc1nc(N)c(C(C[N+](=O)[O-])c2ccccc2OCc2ccc(Cl)c(Cl)c2)c(N)n1 (stereo unspecified),> 100

# Test system: not listed separately
# Test: Cmax in BALB/c mouse at 20 mg/kg, po measured upto 24 hrs by LC-MS/MS analysis
# Format: ADME, organism-based
# Conditions: in vivo
row,Cmax [ng/mL],Structure (SMILES)
1,373,Nc1nc(N)c(C(C[N+](=O)[O-])c2ccccc2OCc2ccc(Cl)c(Cl)c2)c(N)n1 (stereo unspecified)

# Test system: not listed separately
# Test: Selectivity index, ratio of CC50 for human THP-1 cells to EC50 for bloodstream form Trypanosoma brucei
# Format: toxicity
# Conditions: read-out: Ratio CC50/EC50
row,Structure (SMILES),selectivity ratio
1,Nc1nc(N)c(C(C[N+](=O)[O-])c2ccccc2OCc2ccc(Cl)c(Cl)c2)c(N)n1 (stereo unspecified),83

# Test system: hERG
# Test: Selectivity index, ratio of IC50 for human ERG to EC50 for blood stream form Trypanosoma brucei
# Format: toxicity
# Conditions: read-out: Ratio IC50/EC50
row,Structure (SMILES),selectivity ratio
1,Nc1nc(N)c(C(C[N+](=O)[O-])c2ccccc2OCc2ccc(Cl)c(Cl)c2)c(N)n1 (stereo unspecified),> 300

# Test system: Leishmania infantum
# Test: Antiparasitic activity against Leishmania infantum intracellular amastigotes MHOM/BR/1972/BH46 infected in human THP-1 cells assessed as inhibition of parasitic growth at 50 uM pre-infected for 24 hrs followed by compound addition and measured after 48 hrs relative to control
# Format: functional
# Conditions: MHOM/BR/1972/BH46, THP-1
row,Structure (SMILES),inhibition at 50 µM [%]
1,Nc1nc(N)c(C(C[N+](=O)[O-])c2ccccc2OCc2ccc(Cl)c(Cl)c2)c(N)n1 (stereo unspecified),11.7

# Test system: not listed separately
# Test: Inhibition of N-terminal his 6 tagged recombinant Trypanosoma brucei PTR1 expressed in Escherichia coli BL21 (DE3) cells preincubated for 10 mins followed by NADPH addition and measured after 10 to 50 mins by multilabel plate reader method
# Format: cell-based
# Conditions: not given
row,Structure (SMILES),IC50 [µM]
1,Nc1nc(N)c(C(C[N+](=O)[O-])c2ccccc2OCc2ccc(Cl)c(Cl)c2)c(N)n1 (stereo unspecified),0.27

# Test system: not listed separately
# Test: Tmax in BALB/c mouse at 20 mg/kg, po measured upto 24 hrs by LC-MS/MS analysis
# Format: ADME, organism-based
# Conditions: in vivo
row,Tmax [h],Structure (SMILES)
1,0.5,Nc1nc(N)c(C(C[N+](=O)[O-])c2ccccc2OCc2ccc(Cl)c(Cl)c2)c(N)n1 (stereo unspecified)

# Test system: CYP2C9
# Test: Selectivity index, ratio of IC50 for CYP2C9 (unknown origin) to EC50 for blood stream form Trypanosoma brucei
# Format: toxicity
# Conditions: read-out: Ratio IC50/EC50
row,Structure (SMILES),selectivity ratio
1,Nc1nc(N)c(C(C[N+](=O)[O-])c2ccccc2OCc2ccc(Cl)c(Cl)c2)c(N)n1 (stereo unspecified),11

# Test system: CYP3A4
# Test: Selectivity index, ratio of IC50 for CYP3A4 (unknown origin) to EC50 for blood stream form Trypanosoma brucei
# Format: toxicity
# Conditions: read-out: Ratio IC50/EC50
row,Structure (SMILES),selectivity ratio
1,Nc1nc(N)c(C(C[N+](=O)[O-])c2ccccc2OCc2ccc(Cl)c(Cl)c2)c(N)n1 (stereo unspecified),20

# Target: T1, Pteridine reductase 1 (Leishmania major, UniProt Q01782)
# T1 sequence (Q01782 whole entry): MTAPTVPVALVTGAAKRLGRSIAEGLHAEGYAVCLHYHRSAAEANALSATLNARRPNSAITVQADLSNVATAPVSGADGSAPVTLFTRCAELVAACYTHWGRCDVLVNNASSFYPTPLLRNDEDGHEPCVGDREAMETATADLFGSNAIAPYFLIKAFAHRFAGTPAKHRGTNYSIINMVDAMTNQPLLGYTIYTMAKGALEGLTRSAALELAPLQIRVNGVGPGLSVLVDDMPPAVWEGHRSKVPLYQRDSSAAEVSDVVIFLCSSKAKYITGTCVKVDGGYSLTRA
# Test: Inhibition of N-terminal his 6 tagged recombinant Leishmania major PTR1 expressed in Escherichia coli BL21 (DE3) cells preincubated for 10 mins followed by NADPH addition and measured after 10 to 50 mins by multilabel plate reader method
# Conditions: not given
row,IC50 [µM],Structure (SMILES)
1,46,Nc1nc(N)c(C(C[N+](=O)[O-])c2ccccc2OCc2ccc(Cl)c(Cl)c2)c(N)n1 (stereo unspecified)

# Test system: CYP2C19
# Test: Selectivity index, ratio of IC50 for CYP2C19 (unknown origin) to EC50 for blood stream form Trypanosoma brucei
# Format: toxicity
# Conditions: read-out: Ratio IC50/EC50
row,Structure (SMILES),selectivity ratio
1,Nc1nc(N)c(C(C[N+](=O)[O-])c2ccccc2OCc2ccc(Cl)c(Cl)c2)c(N)n1 (stereo unspecified),26

# Target: T2, Cytochrome P450 1A2 (Homo sapiens, UniProt P05177)
# T2 sequence (P05177 whole entry): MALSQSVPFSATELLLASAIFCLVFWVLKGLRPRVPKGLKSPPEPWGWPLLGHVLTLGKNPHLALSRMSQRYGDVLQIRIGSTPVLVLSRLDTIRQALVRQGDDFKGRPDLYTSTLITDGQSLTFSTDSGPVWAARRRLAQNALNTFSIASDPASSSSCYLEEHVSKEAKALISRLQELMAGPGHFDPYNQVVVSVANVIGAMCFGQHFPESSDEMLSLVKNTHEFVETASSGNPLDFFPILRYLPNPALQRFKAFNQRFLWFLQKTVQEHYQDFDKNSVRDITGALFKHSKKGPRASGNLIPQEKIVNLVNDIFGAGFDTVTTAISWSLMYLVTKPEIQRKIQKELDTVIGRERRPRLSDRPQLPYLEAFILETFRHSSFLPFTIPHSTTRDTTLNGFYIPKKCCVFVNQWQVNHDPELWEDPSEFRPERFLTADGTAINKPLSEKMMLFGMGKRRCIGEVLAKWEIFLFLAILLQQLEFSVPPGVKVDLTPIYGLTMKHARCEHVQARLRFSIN
# Test: Inhibition of CYP1A2 (unknown origin) expressed in baculovirus infected insect cells using luciferin as substrate preincubated for 30 mins followed by NADPH addition and measured after 30 mins by luminescence based analysis
# Format: ADME, Insect cell
# Conditions: not given
row,IC50 [µM],Structure (SMILES)
1,1.2,Nc1nc(N)c(C(C[N+](=O)[O-])c2ccccc2OCc2ccc(Cl)c(Cl)c2)c(N)n1 (stereo unspecified)

# Test system: THP-1
# Test: Cytotoxicity against human THP-1 cells assessed as reduction in cell viability measured after 72 hrs by MTT assay
# Format: functional
# Conditions: not given
row,Structure (SMILES),CC50 [µM]
1,Nc1nc(N)c(C(C[N+](=O)[O-])c2ccccc2OCc2ccc(Cl)c(Cl)c2)c(N)n1 (stereo unspecified),25

# Test system: not listed separately
# Test: Selectivity index, ratio of GI50 for human A549 cells to EC50 for blood stream form Trypanosoma brucei
# Format: toxicity
# Conditions: read-out: Ratio GI50/EC50
row,Structure (SMILES),selectivity ratio
1,Nc1nc(N)c(C(C[N+](=O)[O-])c2ccccc2OCc2ccc(Cl)c(Cl)c2)c(N)n1 (stereo unspecified),33

# Test system: not listed separately
# Test: AUC last in BALB/c mouse at 20 mg/kg, po measured upto 24 hrs by LC-MS/MS analysis
# Format: ADME, organism-based
# Conditions: in vivo
row,AUC(0-t) at 24 h [ng·h/mL],Structure (SMILES)
1,1180,Nc1nc(N)c(C(C[N+](=O)[O-])c2ccccc2OCc2ccc(Cl)c(Cl)c2)c(N)n1 (stereo unspecified)

# Test system: not listed separately
# Test: Selectivity index, ratio of IC50 for human A549 cells to EC50 for blood stream form Trypanosoma brucei
# Format: toxicity
# Conditions: read-out: Ratio IC50/EC50
row,Structure (SMILES),selectivity ratio
1,Nc1nc(N)c(C(C[N+](=O)[O-])c2ccccc2OCc2ccc(Cl)c(Cl)c2)c(N)n1 (stereo unspecified),13

# Target: Cytochrome P450 2C19 (Homo sapiens, UniProt P33261)
# Sequence (P33261 whole entry): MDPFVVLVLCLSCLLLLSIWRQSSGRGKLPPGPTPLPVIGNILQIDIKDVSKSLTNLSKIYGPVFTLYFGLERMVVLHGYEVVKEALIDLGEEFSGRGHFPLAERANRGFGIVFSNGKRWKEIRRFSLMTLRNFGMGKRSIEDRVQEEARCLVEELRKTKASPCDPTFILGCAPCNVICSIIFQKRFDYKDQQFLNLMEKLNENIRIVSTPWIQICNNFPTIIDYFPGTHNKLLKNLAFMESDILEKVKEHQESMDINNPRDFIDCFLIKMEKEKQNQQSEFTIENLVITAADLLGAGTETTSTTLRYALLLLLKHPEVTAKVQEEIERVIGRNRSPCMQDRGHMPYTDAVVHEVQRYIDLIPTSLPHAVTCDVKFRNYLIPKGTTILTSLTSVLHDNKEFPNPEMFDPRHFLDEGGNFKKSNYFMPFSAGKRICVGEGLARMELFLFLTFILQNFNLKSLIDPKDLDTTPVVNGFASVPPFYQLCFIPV
# Test: Inhibition of CYP2C19 (unknown origin) expressed in baculovirus infected insect cells using luciferin as substrate preincubated for 30 mins followed by NADPH addition and measured after 30 mins by luminescence based analysis
# Format: ADME, Insect cell
# Conditions: not given
row,IC50 [µM],Structure (SMILES)
1,8,Nc1nc(N)c(C(C[N+](=O)[O-])c2ccccc2OCc2ccc(Cl)c(Cl)c2)c(N)n1 (stereo unspecified)

# Test system: CYP1A2
# Test: Selectivity index, ratio of IC50 for CYP1A2 (unknown origin) to EC50 for blood stream form Trypanosoma brucei
# Format: toxicity
# Conditions: read-out: Ratio IC50/EC50
row,Structure (SMILES),selectivity ratio
1,Nc1nc(N)c(C(C[N+](=O)[O-])c2ccccc2OCc2ccc(Cl)c(Cl)c2)c(N)n1 (stereo unspecified),4

# Target: Cytochrome P450 2C9 (Homo sapiens, UniProt P11712)
# Sequence (P11712 whole entry): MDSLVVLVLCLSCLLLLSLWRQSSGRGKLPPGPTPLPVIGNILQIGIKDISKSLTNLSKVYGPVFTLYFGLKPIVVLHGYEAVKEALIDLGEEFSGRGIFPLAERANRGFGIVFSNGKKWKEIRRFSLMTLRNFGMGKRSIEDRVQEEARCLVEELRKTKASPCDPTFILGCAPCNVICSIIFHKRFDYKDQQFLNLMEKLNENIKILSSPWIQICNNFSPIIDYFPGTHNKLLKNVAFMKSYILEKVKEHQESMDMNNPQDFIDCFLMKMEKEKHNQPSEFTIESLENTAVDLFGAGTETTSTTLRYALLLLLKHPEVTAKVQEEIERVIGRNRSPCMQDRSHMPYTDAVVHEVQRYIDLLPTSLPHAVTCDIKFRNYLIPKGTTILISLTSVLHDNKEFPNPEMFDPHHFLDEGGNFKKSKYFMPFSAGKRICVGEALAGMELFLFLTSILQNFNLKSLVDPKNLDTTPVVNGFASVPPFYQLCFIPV
# Test: Inhibition of CYP2C9 (unknown origin) expressed in baculovirus infected insect cells using luciferin as substrate preincubated for 30 mins followed by NADPH addition and measured after 30 mins by luminescence based analysis
# Format: ADME, Insect cell
# Conditions: not given
row,IC50 [µM],Structure (SMILES)
1,3.2,Nc1nc(N)c(C(C[N+](=O)[O-])c2ccccc2OCc2ccc(Cl)c(Cl)c2)c(N)n1 (stereo unspecified)

# Target: Cytochrome P450 2D6 (Homo sapiens, UniProt P10635)
# Sequence (P10635 whole entry): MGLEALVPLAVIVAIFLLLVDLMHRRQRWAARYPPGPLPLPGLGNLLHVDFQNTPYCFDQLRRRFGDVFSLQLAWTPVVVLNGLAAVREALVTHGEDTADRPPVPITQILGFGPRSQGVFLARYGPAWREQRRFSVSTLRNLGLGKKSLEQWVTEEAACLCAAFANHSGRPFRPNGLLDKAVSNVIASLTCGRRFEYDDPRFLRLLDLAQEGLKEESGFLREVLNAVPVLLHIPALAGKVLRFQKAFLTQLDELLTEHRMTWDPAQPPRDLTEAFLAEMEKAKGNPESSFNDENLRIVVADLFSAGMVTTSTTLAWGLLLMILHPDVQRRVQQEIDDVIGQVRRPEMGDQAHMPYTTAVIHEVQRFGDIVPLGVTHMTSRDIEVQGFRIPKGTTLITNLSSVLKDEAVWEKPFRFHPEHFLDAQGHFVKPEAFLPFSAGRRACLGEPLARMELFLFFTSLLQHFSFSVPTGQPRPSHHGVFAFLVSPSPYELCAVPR
# Test: Inhibition of CYP2D6 (unknown origin) expressed in baculovirus infected insect cells using luciferin as substrate preincubated for 30 mins followed by NADPH addition and measured after 30 mins by luminescence based analysis
# Format: ADME, Insect cell
# Conditions: not given
row,IC50 [µM],Structure (SMILES)
1,5.9,Nc1nc(N)c(C(C[N+](=O)[O-])c2ccccc2OCc2ccc(Cl)c(Cl)c2)c(N)n1 (stereo unspecified)

# Test system: Trypanosoma brucei
# Test: Antiparasitic activity against blood stream form Trypanosoma brucei assessed as parasitic growth inhibition incubated for 72 hrs by resazurin dye based fluorescence analysis
# Format: functional, organism-based
# Conditions: not given
row,EC50 [µM],Structure (SMILES)
1,0.3,Nc1nc(N)c(C(C[N+](=O)[O-])c2ccccc2OCc2ccc(Cl)c(Cl)c2)c(N)n1 (stereo unspecified)
